Test results from patent publication US6087355A, “Cephalosporin antibiotics” (Microcide Pharmaceuticals, Inc., priority 1996, dated 2000).
Structures can show the parent of a compound that is named as a salt.

Experiments:
[1] = system: S. aureus Col(Meth^R)(lac^-); assay: In vitro MIC, agar dilution; format: cell-based; conditions: Staphylococcus aureus, read-out: minimum inhibitory concentration (MIC)
Description: (§1) The compounds of the invention were evaluated against several β-lactamresistant (for example methicillin-resistant, vancomycin resistant, and/or ampicillin-resistant) bacteria strains by determining the minimum inhibitory concentration (MIC, μg/ml) of each compound with respect to each strain. The MIC, the lowest concentration of antibiotic which inhibits growth of the test organism, was determined by the agar dilution method.
(§2) To determine the MIC for bacterial isolates, the test compound was incorporated in a series of two-fold dilutions into liquified Mueller-Hinton agar. Upon solidification, a number of different bacterial strains were spot inoculated with a replicating device onto the agar surface.
(§3) Aliquots of antimicrobial agents were prepared in phosphate buffered saline (PBS) at pH 7.2. Tween 20 or DMSO was used as a solubilizing vehicle as needed. Standard methods of vortexing, sonicating and gentle heat were used to facilitate solubilizing the test agent. […] A 1.28 mg/mL stock solution was used with a subsequent highest working concentration of 128 μg/mL. Serial two-fold dilutions were done through ≤0.25 μg/mL. Each drug level was tested in duplicate. Two-fold drug dilutions were done in sterile 50 mL tubes with a final drug volume of 5 mL. Upon the addition of 45 mL of molten agar, a 10-fold dilution resulted. Two, 25 mL. plates were then poured into 15×150 mm square Petri plates with grids and allowed to harden.
(§4) A control plate with a reference drug, either cefotaxime, vancomycin or imipenem, was used as the positive growth control. Stock concentrations of reference antibiotics were prepared and frozen at -80° C. […] All test plates were used within 24 hours of preparation.
(§5) Satisfactory results were obtained where the inoculum contained about 10^4 colony forming units (cfu)±0.5 logs. Starting with pure cultures of the test isolates on agar plates, a few isolated colonies were transferred to a tube of nutrient broth and allowed to grow 4-6 hours at 35-36° C. to reach log-phase growth. Dropwise addition of the broth culture to PBS was done to match a 0.5 McFarland turbidity standard equal to 10^8 cfu/mL. This was further diluted ten-fold in PBS to reach a working inoculum concentration of 10^7 cfu/mL. When 1 μL of the working inoculum was applied to the agar surface a concentration of about 10^4 cfu per spot was obtained.
(§6) Disposable sterile 1 μL loops were used to inoculate test plates, with each isolate in a designated grid on the agar plate. An alternate method of inoculation involved the use of a replica plater, a device with 48 steel pins allowing the simultaneous inoculation of multiple isolates. After the spots had dried, the plates were incubated at 35-36° C. for 16-20 hours. Endpoints were assessed as the minimum inhibitory concentration (MIC) of antimicrobial agent.
The S. aureus Col strain is a high-level PBP2a producer, whereas S. aureus Col 8A, its isogenic partner, lacks PBP2a.

[2] = system: S. aureus strain ATCC 13709 (methicillin-susceptible); assay: Murine model for lethal bacteremic peritonitis; format: in vivo, female Swiss-Webster mice; conditions: Staphylococcus aureus, ATCC13709, SC, 72 h
Description: Groups of 5 female Swiss-Webster mice (Simonsen, Gilroy, Calif.) each are challenged by the intraperitoneal (IP) route with tenfold increments of a bacterial inoculum. This permits calculation of the mean lethal dose (LD50) and the LD100. For preliminary evaluation of a new antibiotic, mice are challenged IP with an LD100 titer of bacteria. In two equal doses administered at the time of bacterial challenge and 2 hours later, groups of 10 mice each are treated subcutaneously with two-fold increments of the test drug and an antibiotic of known efficacy in mice and humans (i.e., positive control). Mice are observed for 72 h. Those alive at 72 h are considered long term survivors. The total drug dose in mg/kg that protects 50% of mice in a group from death is termed the mean protective dose (PD50). PD50 s are similarly determined for several pathogens. The quantitative endpoints for the new drug are then compared with those obtained with reference antibiotics.
Six ten-fold dilutions of inoculum suspended in 0.5 mL of sterilized 7% hog gastric mucin (Sigma) are injected IP in groups of 5 mice each. A control group of 5 mice receive mucin alone. Mice are observed for 72 h. Those alive at 72 h are considered long term survivors. The mean lethal dose (LD50) and 100% lethal dose (LD100) are determined by the probit test.
For antibiotic efficacy studies, mice are challenged IP with bacterial titers that will afford an LD100 for the test strain. In two equal doses administered at the time of bacterial challenge and 2 hours later, groups of 10 mice each are treated by the subcutaneous route (SC) with twofold increments of the test antibiotic; another group is treated similarly with a reference antibiotic of known efficacy in animals and man. Drug doses can range from 0.01 to 512 mg/kg. If the drug is poorly soluble, Tween 20 or propylene glycol will be employed to solubilize the drug. Animals are observed for 72 h. The 50% protective dose (PD50) is calculated in mg/kg by the probit method. The PD50 is the same as the 50% effective dose (ED50) and the 50% curative dose (CD50). Samples of blood from the hearts of all animals that die and from half the mice that survive are cultured on brain-heart infusion agar. Animals that received a protective dosage of the test drug will be alive at 72 h, although they may appear moderately ill to very ill during the observation period. […] Most of these mice will die within 6 to 48 h. Those alive at 72 h will be considered long term survivors.
(Compound numbers correspond to those in MIC tables; data reported for challenge with methicillin-susceptible S. aureus strain ATCC 13709.)

[3] = system: E. faecalis VanB(Van^R); assay: In vitro MIC, agar dilution; format: cell-based; conditions: Enterococcus faecalis, read-out: minimum inhibitory concentration (MIC)
Description: as §1, §2, §3, §4, §5, §6

[4] = system: E. faecium A491(Amp^R); assay: In vitro MIC, agar dilution; format: cell-based; conditions: Enterococcus faecium, read-out: minimum inhibitory concentration (MIC)
Description: as §1, §2, §3, §4, §5, §6

[5] = system: E. faecalis ATCC 29212; assay: In vitro MIC, agar dilution; format: cell-based; conditions: Enterococcus faecalis, ATCC29212, read-out: minimum inhibitory concentration (MIC)
Description: as §1, §2, §3, §4, §5, §6

[6] = system: E. faecium VanA(Van^R); assay: In vitro MIC, agar dilution; format: cell-based; conditions: Enterococcus faecium, read-out: minimum inhibitory concentration (MIC)
Description: as §1, §2, §3, §4, §5, §6

[7] = system: S. aureus PC1(Meth^S)(lac^+); assay: In vitro MIC, agar dilution; format: cell-based; conditions: Staphylococcus aureus, read-out: minimum inhibitory concentration (MIC)
Description: as §1, §2, §3, §4, §5, §6

[8] = system: S. aureus Spain #356(Meth^R); assay: In vitro MIC, agar dilution; format: cell-based; conditions: Staphylococcus aureus, read-out: minimum inhibitory concentration (MIC)
Description: as §1, §2, §3, §4, §5, §6

[9] = system: S. aureus 76(Meth^R)(lac^+); assay: In vitro MIC, agar dilution; format: cell-based; conditions: Staphylococcus aureus, read-out: minimum inhibitory concentration (MIC)
Description: as §1, §2, §3, §4, §5, §6

[10] = system: E. faecium ATCC 35667; assay: In vitro MIC, agar dilution; format: cell-based; conditions: Enterococcus faecium, ATCC35667, read-out: minimum inhibitory concentration (MIC)
Description: as §1, §2, §3, §4, §5, §6

[11] = system: S. aureus ATCC 33593(Meth^R); assay: In vitro MIC, agar dilution; format: cell-based; conditions: Staphylococcus aureus, ATCC33593, read-out: minimum inhibitory concentration (MIC)
Description: as §1, §2, §3, §4, §5, §6

[12] = system: S. aureus ATCC 29213; assay: In vitro MIC, agar dilution; format: cell-based; conditions: Staphylococcus aureus, ATCC29213, read-out: minimum inhibitory concentration (MIC)
Description: as §1, §2, §3, §4, §5, §6

[13] = system: E. coli ATCC 25992; assay: In vitro MIC, agar dilution; format: cell-based; conditions: Escherichia coli, ATCC25992, read-out: minimum inhibitory concentration (MIC)
Description: as §1, §2, §3, §4, §5, §6

[14] = system: S. haemolyticus 05(Meth^R); assay: In vitro MIC, agar dilution; format: cell-based; conditions: Staphylococcus haemolyticus, read-out: minimum inhibitory concentration (MIC)
Description: as §1, §2, §3, §4, §5, §6

[15] = system: P. aeruginosa ATCC 27853; assay: In vitro MIC, agar dilution; format: cell-based; conditions: Pseudomonas aeruginosa, ATCC27853, read-out: minimum inhibitory concentration (MIC)
Description: as §1, §2, §3, §4, §5, §6

[16] = system: S. aureus ATCC 13709(Meth^S); assay: In vitro MIC, agar dilution; format: cell-based; conditions: Staphylococcus aureus, ATCC13709, S. aureus ATCC 13709(Meth^S); read-out: minimum inhibitory concentration (MIC)
Description: as §1, §2, §3, §4, §5, §6

SMILES	MIC [1]	MIC [3]	MIC [4]	MIC [5]	MIC [6]	MIC [7]	MIC [8]	MIC [9]	MIC [10]	MIC [11]	MIC [12]	MIC [13]	MIC [14]	MIC [15]	MIC [16]	other results
N=C(N)SCc1cnccc1SC1=C(C(=O)O)N2C(=O)[C@@H](NC(=O)/C(=N\O)c3csc(N)n3)[C@H]2SC1 [Cmpd 3, (7R)-7-[(Z)-2-(aminothiazol-4-yl)-2-(hydroxyimino)acetamido]-3-(3-isothioureidomethylpyrid-4-ylthio)-3-cephem-4-carboxylate, trifluoroacetic acid salt]	8 µg/mL	1 µg/mL	> 32 µg/mL	0.5 µg/mL	8 µg/mL	0.5 µg/mL	8 µg/mL	8 µg/mL	2 µg/mL	8 µg/mL	0.5 µg/mL	2 µg/mL	8 µg/mL	> 32 µg/mL	0.5 µg/mL	responders at 0.156 mg/kg ([2]; Dose 0.156 mg/kg, read-out: Survivors): 0%; responders at 0.3125 mg/kg ([2]; Dose 0.3125 mg/kg, read-out: Survivors): 50%; responders at 0.625 mg/kg ([2]; Dose 0.625 mg/kg, read-out: Survivors): 80%; responders at 1.25 mg/kg ([2]; Dose 1.25 mg/kg, read-out: Survivors (converted)): 70%; responders at 2.5 mg/kg ([2]; Dose 2.5 mg/kg, read-out: Survivors): 90%; ED50 ([2]; two equal doses, IP challenge, read-out: ED50): 0.42 mg/kg
CC(=N)NCCSCc1cnccc1SC1=C(C(=O)O)N2C(=O)[C@@H](NC(=O)/C(=N\O)c3nc(N)sc3Cl)[C@H]2SC1 [Cmpd 54, (7R)-7-[(Z)-2-(2-amino-5-chlorothiazol-4-yl)-2-(hydroxyimino)acetamido]-3-(3-(N-acetamidinoyl)aminoethylthiomethylpyrid-4-ylthio)-3-cephem-4-carboxylate, trifluoroacetic acid salt]	2 µg/mL	0.25 µg/mL	8 µg/mL	0.13 µg/mL	1 µg/mL	0.25 µg/mL	2 µg/mL	2 µg/mL	0.5 µg/mL	1 µg/mL	0.25 µg/mL	8 µg/mL	2 µg/mL	> 32 µg/mL	0.25 µg/mL	–
N=C(N)SCc1cnccc1SC1=C(C(=O)O)N2C(=O)[C@@H](NC(=O)/C(=N\O)c3nc(N)sc3Cl)[C@H]2SC1 [Cmpd 60, (7R)-7-[(Z)-2-(2-amino-5-chlorothiazol-4-yl)-2-(hydroxyimino)acetamido]-3-(3-isothioureidomethylpyrid-4-ylthio)-3-cephem-4-carboxylate, trifluoroacetic acid salt]	2 µg/mL	0.25 µg/mL	16 µg/mL	0.5 µg/mL	2 µg/mL	0.25 µg/mL	2 µg/mL	1 µg/mL	1 µg/mL	2 µg/mL	0.25 µg/mL	8 µg/mL	4 µg/mL	> 32 µg/mL	0.13 µg/mL	–
CN(C)C(=O)CNCCSCc1cnccc1SC1=C(C(=O)O)N2C(=O)[C@@H](NC(=O)/C(=N\O)c3nc(N)sc3Cl)[C@H]2SC1 [Cmpd 61, (7R)-7-[(Z)-2-(2-amino-5-chlorothiazol-4-yl)-2-(hydroxyimino)acetamido]-3-(3-(N,N-dimethylcarboxamidomethylaminoethylthiomethyl)pyrid-4-ylthio)-3-cephem-4-carboxylate, trifluoroacetic acid salt]	4 µg/mL	0.25 µg/mL	16 µg/mL	0.25 µg/mL	2 µg/mL	1 µg/mL	4 µg/mL	4 µg/mL	1 µg/mL	4 µg/mL	1 µg/mL	16 µg/mL	8 µg/mL	> 32 µg/mL	1 µg/mL	–
CC(C)(N)CSCc1cnccc1SC1=C(C(=O)O)N2C(=O)[C@@H](NC(=O)/C(=N\O)c3nc(N)sc3Cl)[C@H]2SC1 [Cmpd 62, (7R)-7-[(Z)-2-(2-amino-5-chlorothiazol-4-yl)-2-(hydroxyimino)acetamido]-3-(3-(2-amino-2-methylpropylthiomethyl)pyrid-4-ylthio)-3-cephem-4-carboxylate, trifluoroacetic acid salt]	4 µg/mL	0.25 µg/mL	16 µg/mL	0.13 µg/mL	2 µg/mL	0.5 µg/mL	4 µg/mL	4 µg/mL	1 µg/mL	4 µg/mL	0.5 µg/mL	8 µg/mL	4 µg/mL	> 32 µg/mL	0.5 µg/mL	–
